Data: ChEMBL document CHEMBL1134477, “Combinatorial lead optimization of a neuropeptide FF antagonist” (J Med Chem, 2001)
Where a SMILES comes first, the peptide text is derived from it. The star is where a group is joined. Dansyl = CN(C)c1cccc2c(S(=O)(=O)*)cccc12; Desaminotyrosyl = O=C(CCc1ccc(O)cc1)*

How the values were obtained:
[1] = target: Neuropeptide FF receptor 2 (Rattus norvegicus, UniProt Q9EQD2); experiment: Binding affinity towards NPFF receptor was measured by the displacement of [125I]-YLFQPQRF-NH2
Neuropeptide FF receptor 2, sequence (Q9EQD2 whole entry): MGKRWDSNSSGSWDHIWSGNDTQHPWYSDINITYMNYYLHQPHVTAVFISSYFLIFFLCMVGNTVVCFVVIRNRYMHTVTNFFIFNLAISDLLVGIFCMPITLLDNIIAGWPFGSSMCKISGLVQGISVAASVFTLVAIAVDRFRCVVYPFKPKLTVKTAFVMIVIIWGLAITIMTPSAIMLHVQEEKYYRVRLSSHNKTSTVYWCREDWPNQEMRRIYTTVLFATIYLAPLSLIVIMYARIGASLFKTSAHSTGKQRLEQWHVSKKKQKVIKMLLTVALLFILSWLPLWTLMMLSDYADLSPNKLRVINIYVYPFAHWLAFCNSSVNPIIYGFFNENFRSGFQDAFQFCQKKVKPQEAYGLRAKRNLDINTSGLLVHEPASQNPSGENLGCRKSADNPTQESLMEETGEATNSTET

[2] = K' value on the basis of IAM (immobilized artificial membrane) retention; assay type: functional

Ki [1] | Compound | kIAM' [2]
1400 nM | CN(C)c1cccc2c(S(=O)(=O)NCC(=O)N[C@@H](CO)C(=O)N[C@@H](CCCN=C(N)N)C(N)=O)cccc12 (Dansyl-Gly-Ser-Arg-NH2) | 8
840 nM | CC(C)C[C@H](NC(=O)[C@H](Cc1ccccc1)NC(=O)CCc1ccc(O)cc1)C(=O)N[C@@H](Cc1ccccc1)C(=O)N[C@@H](CCC(N)=O)C(=O)N1CCC[C@H]1C(=O)N[C@@H](CCC(N)=O)C(=O)N[C@@H](CCCNC(=N)N)C(N)=O (Desaminotyrosyl-FLFQPQR-NH2) | –

Compound | Ki [1] | kIAM' [2]
CN(C)c1cccc2c(S(=O)(=O)N3CCC[C@H]3C(=O)N[C@@H](CCC(N)=O)C(=O)N[C@@H](CCCNC(=N)N)C(N)=O)cccc12 [DANSYLPQRAMIDE] | 13600 nM | 5.9
